Tests used:
[1] = test system: Tetranychus urticae (two-spotted spider mite); assay: Example B4: activity against Tetranychus urticae, sprayed bean leaf discs (feeding/residual contact, preventive); conditions: foliar, 192 h, read-out: activity (egg, larval and adult mortality)
[2] = test system: Myzus persicae (green peach aphid); assay: Example B2: activity against Myzus persicae, pea seedling roots in test solution (systemic/feeding, curative); conditions: 144 h, read-out: activity (mortality)
[3] = test system: Myzus persicae (green peach aphid); assay: Example B1: activity against Myzus persicae, sprayed sunflower leaf discs (feeding/residual contact, preventive); conditions: foliar, 144 h, read-out: activity (mortality)
[4] = test system: Myzus persicae (green peach aphid); assay: Example B17: activity against Myzus persicae on sprayed pepper plants (feeding/residual contact); assay type: in vivo; conditions: 144 h, infested pepper plants sprayed, 6 days

Row | SMILES | mortality at 400 ppm [1] [%] | mortality at 400 ppm [2] [%] | mortality at 400 ppm [3] [%] | mortality at 200 ppm [4] [%]
1 | CCOC(=O)OC1=C(c2c(C)cc(C)cc2C)C(=O)N(OCC2CCCCC2)C12CCN(OC)CC2 [P1.105] | > 80 |  |  | 
2 | COCON1C(=O)C(c2ccc(C)cc2C)=C(O)C12CCN(OC)CC2 [P2.52] |  | > 80 | > 80 | 
3 | CCOC(=O)OC1=C(c2c(C)ccc(Cl)c2C)C(=O)N(OC)C12CCN(OC)CC2 [P1.37] |  |  | > 80 | ≥ 80
4 | CCOCON1C(=O)C(c2ccc(C)cc2C)=C(O)C12CCN(OC)CC2 [P2.61] |  | > 80 | > 80 | 
5 | CCOC(=O)OC1=C(c2c(F)ccc(C)c2Cl)C(=O)N(OC2CCCO2)C12CCN(OC)CC2 (stereo not drawn) [P1.102] |  | > 80 |  | 
6 | COCCON1C(=O)C(c2cc(C)c(C)cc2C)=C(O)C12CCN(OC)CC2 [P2.37] |  |  | > 80 | 
7 | CCOC(=O)OC1=C(c2c(C)cc(C)cc2C)C(=O)N(OC2COC2)C12CCN(OC)CC2 [P1.79] |  | > 80 |  | ≥ 80
8 | CCOC(=O)OC1=C(c2c(C)cc(C)cc2Br)C(=O)N(OC)C12CCN(OC)CC2 [P1.66] |  | > 80 | > 80 | 
9 | CON1CCC2(CC1)C(O)=C(c1cc(C)c(C)cc1Cl)C(=O)N2OC [P2.43] |  |  |  | ≥ 80
10 | CCOC(=O)OC1=C(c2c(C)cc(C)cc2Br)C(=O)N(OCOC)C12CCN(OC)CC2 [P1.68] |  | > 80 | > 80 | 
11 | COCCON1C(=O)C(c2c(C)cc(Br)cc2C)=C(O)C12CCN(OC)CC2 [P2.80] |  | > 80 | > 80 | 
12 | CON1CCC2(CC1)C(O)=C(c1c(C)cccc1C)C(=O)N2OC [P2.78] |  | > 80 | > 80 | ≥ 80
13 | COCON1C(=O)C(c2cc(C)c(C)cc2Br)=C(O)C12CCN(OC)CC2 [P2.41] |  | > 80 | > 80 | 
14 | CCOC(=O)OC1=C(c2c(C)cc(C)cc2C)C(=O)N(OC2CCOC2)C12CCN(OC)CC2 (stereo not drawn) [P1.108] |  | > 80 | > 80 | 
15 | CON1CCC2(CC1)C(O)=C(c1cc(C)c(C)cc1C)C(=O)N2OC [P2.36] |  |  | > 80 | ≥ 80
16 | CCOC(=O)OC1=C(c2ccc(C)cc2C)C(=O)N(OCOC)C12CCN(OC)CC2 [P1.50] |  | > 80 | > 80 | 
17 | CCOC(=O)OC1=C(c2cc(C)c(Cl)cc2C)C(=O)N(OCCOC)C12CCN(OC)CC2 [P1.33] |  |  | > 80 | 
18 | COCCON1C(=O)C(c2c(F)ccc(C)c2Cl)=C(O)C12CCN(OC)CC2 [P2.59] |  | > 80 |  | 
19 | CCOC(=O)OC1=C(c2cc(C)c(Cl)cc2C)C(=O)N(OCOC)C12CCN(OC)CC2 [P1.32] |  |  |  | ≥ 80
20 | CON1CCC2(CC1)C(O)=C(c1c(Cl)ccc(C)c1F)C(=O)N2OC1CCCO1 (stereo not drawn) [P2.45] | > 80 |  |  | 
21 | CON1CCC2(CC1)C(O)=C(c1c(C)ccc(Cl)c1C)C(=O)N2OC [P2.40] |  | > 80 | > 80 | ≥ 80
22 | CON1CCC2(CC1)C(O)=C(c1c(C)cc(C)c(C)c1C)C(=O)N2OC [P2.49] |  | > 80 |  | 
23 | CCOC(=O)OC1=C(c2c(C)cc(C)cc2C)C(=O)N(OCC2CCSCC2)C12CCN(OC)CC2 [P1.80] | > 80 |  |  | 

Row | SMILES | mortality at 400 ppm [1] [%] | mortality at 400 ppm [2] [%] | mortality at 400 ppm [3] [%] | mortality at 200 ppm [4] [%]
24 | CCOC(=O)OC1=C(c2cc(C)c(Cl)cc2C)C(=O)N(OC)C12CCN(OC)CC2 [P1.34] |  |  | > 80 | 
25 | CCOC(=O)OC1=C(c2c(C)cc(C)cc2C)C(=O)N(OC2CCCCC2)C12CCN(OC)CC2 [P1.30] |  |  | > 80 | 
26 | CCOC(=O)OC1=C(c2c(C)cc(C)c(C)c2C)C(=O)N(OCCOC)C12CCN(OC)CC2 [P1.46] |  | > 80 |  | 
27 | CCOC(=O)OC1=C(c2cc(C)c(C)cc2C)C(=O)N(OC)C12CCN(OC)CC2 [P1.57] |  | > 80 | > 80 | ≥ 80
28 | CCOC(=O)OC1=C(c2cc(C)c(C)cc2Cl)C(=O)N(OCOC)C12CCN(OC)CC2 [P1.38] |  |  | > 80 | ≥ 80
29 | CON1CCC2(CC1)C(O)=C(c1c(C)cc(C)cc1C)C(=O)N2OCC1CCSCC1 [P2.82] |  |  |  | ≥ 80
30 | CCOC(=O)OC1=C(c2cc(C)c(Cl)cc2C)C(=O)N(OC2CCCO2)C12CCN(OC)CC2 (stereo not drawn) [P1.103] |  |  | > 80 | 
31 | CON1CCC(ON2C(=O)C(c3c(C)cc(C)cc3C)=C(O)C23CCN(OC)CC3)CC1 [P2.95] |  | > 80 |  | ≥ 80
32 | COCON1C(=O)C(c2c(Cl)ccc(C)c2F)=C(O)C12CCN(OC)CC2 [P2.46] |  | > 80 |  | 
33 | CON1CCC2(CC1)C(O)=C(c1c(F)ccc(C)c1Cl)C(=O)N2OC1CCCO1 (stereo not drawn) [P2.92] |  | > 80 | > 80 | 
34 | CCOC(=O)OC1=C(c2cc(C)c(C)cc2Cl)C(=O)N(OC)C12CCN(OC)CC2 [P1.39] |  |  | > 80 | 
35 | CON1CCC2(CC1)C(O)=C(c1c(C)cc(C)cc1C)C(=O)N2OCCSC [P2.99] |  | > 80 |  | ≥ 80
36 | CCOC(=O)OC1=C(c2cc(C)c(C)cc2Cl)C(=O)N(OCCOC)C12CCN(OC)CC2 [P1.35] |  | > 80 | > 80 | 
37 | CCOC(=O)OC1=C(c2c(C)cccc2C)C(=O)N(OCCOC)C12CCN(OC)CC2 [P1.73] |  | > 80 | > 80 | ≥ 80
38 | CON1CCC2(CC1)C(O)=C(c1c(C)cc(C)cc1C)C(=O)N2OC1CCOC1 (stereo not drawn) [P2.98] |  | > 80 | > 80 | 
39 | CON1CCC2(CC1)C(O)=C(c1cc(C)c(Cl)cc1C)C(=O)N2OC [P2,31] |  |  |  | ≥ 80
40 | COCCON1C(=O)C(c2c(C)ccc(Cl)c2C)=C(O)C12CCN(OC)CC2 [P2.70] |  | > 80 | > 80 | ≥ 80
41 | CCOC(=O)OC1=C(c2cc(Br)c(C)cc2C)C(=O)N(OCOC)C12CCN(OC)CC2 [P1.87] | > 80 |  |  | 
42 | COCON1C(=O)C(c2cc(C)c(Cl)cc2C)=C(O)C12CCN(OC)CC2 [P2.27] |  | > 80 |  | 
43 | CON1CCC2(CC1)C(O)=C(c1cc(C)c(Cl)cc1C)C(=O)N2OC1CCCO1 (stereo not drawn) [P2.93] |  |  | > 80 | 
44 | CON1CCC2(CC1)C(O)=C(c1c(C)cc(C)cc1C)C(=O)N2OC1COC1 [P2.66] |  | > 80 | > 80 | ≥ 80
45 | CCOC(=O)OC1=C(c2cc(C)c(C)cc2Br)C(=O)N(OCOC)C12CCN(OC)CC2 [P1.52] |  | > 80 |  | 
46 | COCCON1C(=O)C(c2cc(C)c(Cl)cc2C)=C(O)C12CCN(OC)CC2 [P2.29] |  |  |  | ≥ 80

Row | SMILES | mortality at 400 ppm [1] [%] | mortality at 400 ppm [2] [%] | mortality at 400 ppm [3] [%] | mortality at 200 ppm [4] [%]
47 | CCOC(=O)OC1=C(c2c(C)cc(-c3ccc(Cl)cc3)cc2C)C(=O)N(OCOC)C12CCN(OC)CC2 [P1.20] |  |  | > 80 | 
48 | CCOC(=O)OC1=C(c2cc(C)c(C)cc2C)C(=O)N(OCCOC)C12CCN(OC)CC2 [P1.36] |  |  | > 80 | 
49 | CCOC(=O)OC1=C(c2cc(Br)ccc2C)C(=O)N(OCOC)C12CCN(OC)CC2 [P1.21] | > 80 |  |  | 
50 | CCOC(=O)OC1=C(c2c(C)ccc(Cl)c2C)C(=O)N(OCCOC)C12CCN(OC)CC2 [P1.65] |  | > 80 |  | ≥ 80
51 | CON1CCC2(CC1)C(O)=C(c1cc(Br)c(C)cc1C)C(=O)N2OC1CCCO1 (stereo not drawn) [P2.76] | > 80 |  |  | 
52 | CCOC(=O)OC1=C(c2c(Cl)ccc(C)c2F)C(=O)N(OC)C12CCN(OC)CC2 [P1.41] |  | > 80 |  | 
53 | CCOC(=O)OC1=C(c2c(C)cc(C)cc2Br)C(=O)N(OCCOC)C12CCN(OC)CC2 [P1.67] |  | > 80 | > 80 | 
54 | CON1CCC2(CC1)C(O)=C(c1c(C)cc(C)cc1C)C(=O)N2OC1CCCCC1 [P2.26, 1-Cyclohexyloxy-4-hydroxy-8-methoxy-3-(2,4,6-trimethyl-phenyl)-1,8-diaza-spiro[4.5]dec-3-en-2-one] | > 80 |  |  | 
55 | COCCON1C(=O)C(c2cc(C)c(C)cc2Cl)=C(O)C12CCN(OC)CC2 [P2.32] |  | > 80 |  | 
56 | COCCCON1C(=O)C(c2c(C)cc(C)cc2C)=C(O)C12CCN(OC)CC2 [P2.28] |  | > 80 | > 80 | 
57 | COCON1C(=O)C(c2c(C)ccc(Cl)c2C)=C(O)C12CCN(OC)CC2 [P2.71] |  | > 80 |  | ≥ 80
58 | CON1CCC2(CC1)C(O)=C(c1c(Cl)ccc(C)c1F)C(=O)N2OC1CCCO1 (stereo not drawn) [P2.44] |  | > 80 |  | 
59 | CCOC(=O)OC1=C(c2c(C)cc(Br)cc2C)C(=O)N(OCCOC)C12CCN(OC)CC2 [P1.89] |  | > 80 | > 80 | ≥ 80
60 | CON1CCC2(CC1)C(O)=C(c1ccc(C)cc1C)C(=O)N2OC1CCCO1 (stereo not drawn) [P2.33] |  | > 80 | > 80 | ≥ 80
61 | COCON1C(=O)C(c2cc(C)c(C)cc2C)=C(O)C12CCN(OC)CC2 [P2.38] |  |  | > 80 | ≥ 80
62 | COCON1C(=O)C(c2c(C)cc(C)cc2Br)=C(O)C12CCN(OC)CC2 [P2.72] |  | > 80 | > 80 | 
63 | COCCON1C(=O)C(c2cc(C)c(C)cc2Br)=C(O)C12CCN(OC)CC2 [P2.53] |  | > 80 |  | 
64 | CCOC(=O)OC1=C(c2c(C)cc(Br)cc2C)C(=O)N(OC2CCCO2)C12CCN(OC)CC2 (stereo not drawn) [P1.63] |  | > 80 | > 80 | ≥ 80
65 | COCON1C(=O)C(c2cc(Br)c(C)cc2C)=C(O)C12CCN(OC)CC2 [P2.74] |  |  | > 80 | 
66 | CCOC(=O)OC1=C(c2c(Cl)ccc(C)c2F)C(=O)N(OCOC)C12CCN(OC)CC2 [P1.42] |  | > 80 |  | 
67 | CCOC(=O)OC1=C(c2cc(C)c(C)cc2Cl)C(=O)N(OC2CCCO2)C12CCN(OC)CC2 (stereo not drawn) [P1.64] |  | > 80 |  | 

Reference: patent US20110224079A1, “SPIROHETEROCYCLIC N-OXYAMIDES AS PESTICIDES” (SYNGENTA CROP PROTECTION LLC, priority 2008, published 2011)
